Conditions: 3000 kPa, Coriolis flow meter

CCCCCCCCCC [decane]
Conditions | mass density [kg/m3]
285.3 K, Liquid | 736.8
313.1 K, Liquid | 716.24
343.4 K, Liquid | 706.6
354.5 K, Liquid | 682.3
373.3 K, Liquid | 660.16
423.7 K, Liquid | 630.21
475.8 K, Liquid | 588.61
523.2 K, Liquid | 547.44
571.8 K, Liquid | 487.16
624.2 K, Liquid | 365.9
673.2 K, Gas | 143.74
700.3 K, Gas | 112.44
723 K, Gas | 96.77
